Laboratory results reported in paper PMC5962729 (Frontiers in Pharmacology, 2018).
Like-named read-outs stand apart in the source and are kept apart here.

Assays:
[1] = Pharmacokinetic study of YCHD components and phase II metabolites in ANIT-induced cholestatic rats (UHPLC-MS/MS, sulfatase enzymolysis); format: in vivo, rat; settings: for AUC(0-∞) / Ka: Model group (ANIT 50 mg/kg cholestatic rats); for AUC(0-∞) / Ka / AUC(0-∞) reduced by, cholestatic model rats compared with normal rats / Cmax reduced by, cholestatic model rats compared with normal rats / AUC(0-∞) increased by, cholestatic model rats compared with normal rats / Cmax increased by, cholestatic model rats compared with normal rats: single oral YCHD 12 g/kg; for Vd/F / half-life / Cmax / Tmax / CL/F / MRT inf: rat, po, 12 g/kg; for Vd/F: read-out: Vz/F; for half-life: read-out: t1/2z; for CL/F: read-out: CLz/F; for MRT inf: read-out: MRT (0-∞) (converted); for in vivo absorption and excretion processes in cholestatic rats (comparison of Ka and Ke): versus normal rats, oral YCHD 12 g/kg
Protocol: To explore the pharmacokinetic properties of YCHD following intragastric administration in rats, a rapid and sensitive method involving the use of UHPLC-MS/MS (Agilent 6460 series, Agilent Technologies, Santa Clara, CA, United States) was developed and validated for the simultaneous quantification of 10 active components of rat plasma. The quantification was conducted in ESI negative ionization mode, and the mass spectrometry conditions were as follows: capillary voltage, 3500 V; gas flow, 12 L/min; nebulizer, 40 psi; gas temperature, 350°C; and delta EMV (-), 400.
To each 50 μL plasma sample, 10 μL of internal standard solution (paeoniflorin, 1000 ng/mL) and 300 μL of a mixed solution of methanol and acetonitrile (v/v, 1:1; containing 1% formic acid) were added. Subsequently, the solution was vortex mixed for 5 min. After centrifugation at 15,000 rpm for 5 min, the supernatant was transferred completely into a tube, before being evaporated under N2 at 40°C. The residue was then dissolved in 50 μL of 50% methanol–water (v/v, 1:1) through vortexing for 5 min, after centrifugation at 15,000 rpm for 10 min. Finally, 5 μL of the supernatant sample was injected into the UHPLC-MS/MS system for analysis.
The rats were randomly divided into two groups (n = 5 for each group). […] The blood samples were centrifuged at 4000 rpm for 10 min, and the supernatant plasma was harvested. Plasma samples (50 μL) were immediately processed as outlined in Section “Chromatographic and Mass Spectrometry Conditions.”
Additional plasma samples (50 μL) were enzymatically hydrolyzed with 50 μL of enzyme solution (65.86 mg of sulfatase, dissolved in 2 mL of sodium acetate buffer, pH 5.0) for phase II metabolite quantification, in accordance with our previous study ([Ding et al., 2012]). After being vortex mixed for 5 min, the mixture was incubated at 37°C for 30 min and then returned to room temperature. Subsequently, the samples were processed as outlined in Section “Chromatographic and Mass Spectrometry Conditions” for UHPLC-MS/MS analysis. During routine analysis, each analytical run included six blank plasma samples, a set of calibration samples, a set of QC samples, and unknowns.
All data are presented as mean ± SD. A one-way analysis of variance was used to compare data between two groups using SPSS (Version 21.0). The differences were considered to be statistically significant when p < 0.05 and highly significant when p < 0.01 or p < 0.001. Pharmacokinetic data analysis was performed using DAS 2.1.1 software (Mathematical Pharmacology Professional Committee of China, Shanghai, China).
The specific contents of the phase II metabolites of these components were detected indirectly by evaluating the content difference of their prototypes in samples after enzymolysis and before enzymolysis
CG = Ca −[MG × (CGG/MGG + CGe/MGe)]
Ca, CGG, and CGe represent the concentration of genipin, genipin-1-β-D-gentiobioside, and geniposide after enzymolysis of sulfatase, respectively. MG, MGG-, and MGe represent the mass of genipin, genipin-1-β-D-gentiobioside, and geniposide, respectively.

[2] = Identification of components and metabolites of YCHD in rat plasma, bile, urine and feces (UHPLC/Q-TOF-MS); format: in vivo; settings: rats, oral YCHD 12 g/kg, urine, feces
Protocol: After centrifuging at 4000 rpm for 10 min, supernatant plasma was harvested into heparinized tubes and then stored at -20°C for preservation. The rats in the second group (n = 6) were kept individually in metabolic cages to collect urine and feces. […] Subsequently, the rats were orally administered a single dose of YCHD (12 g/kg of body weight). […] For the third group of rats (n = 6), bile duct intubation was implemented, and blank bile samples were collected before administration. After the administration of YCHD at 12 g/kg of body weight, the drug-containing bile samples were collected.
Plasma, bile, and urine samples (200 μL each) were separately precipitated with six times of methanol–acetonitrile mixed solution (v/v, 1:1; containing 1% formic acid). After being vortex mixed for 5 min and centrifuged at 15,000 rpm for 5 min at 4°C, the supernatant was separated into another clean tube and dried under a gentle stream of nitrogen at 45°C. Subsequently, the residue was reconstituted in 100 μL of 50% methanol–water (v/v) and then vortex mixed for 10 min. After another round of centrifugation at 15,000 rpm for 5 min at 4°C, 5 μL of the supernatant was analyzed by UHPLC-MS/MS. A 0.5 g sample of naturally dried feces was supplemented with 2 mL of 80% methanol–water (v/v) and then ultrasonically extracted for 30 min at 4°C. After being centrifuged at 15,000 rpm for 10 min, the supernatant was dried under a gentle stream of nitrogen at 45°C. Finally, the residue was reconstituted in 1 mL of 50% methanol–water (v/v) and then vortex mixed for 10 min. After another round of centrifugation at 15,000 rpm for 5 min at 4°C, 5 μL of the supernatant sample was injected into the UHPLC-MS/MS system for analysis.
Separations were conducted on an Agilent SB-C18 column (2.1 mm × 50 mm, 1.8 μm) of a UHPLC/Q-TOF-MS system (Waters, Corp., Milford, MA, United States) maintained at 40°C.
A Synapt G2 quadrupole time-of-flight (Q/TOF) MS/MS system (Waters, Corp., Manchester, United Kingdom) equipped with an electrospray ionization (ESI) interface was operated in negative ionization mode and controlled by MassLynx software (Version 4.1). The optimized conditions for maximum detection of metabolites were as follows: the capillary voltage was set at 3.0 kV, extraction cone voltage was set at 10 and 15 V, source temperature was maintained at 120°C, and desolvation temperature was maintained at 450°C. […] An MS^E approach using a dynamic ramp of collision energy was also applied at two (low and high collision energies) scan functions. The following parameters were set: Function 1 (low energy)—mass scan range, 100–1000; scan time, 0.25 s; interscan delay, 0.05 s; collision energy, 4 V. Function 2 (high energy)—mass scan range, 100–1000; scan time, 0.2 s; interscan delay, 0.05 s; collision energy ramp, 10–30 V. Data were acquired using Masslynx^TM (Version 4.1. Waters, Crop., Milford, MA, United States), and Metabolynx^TM (Waters, Crop., Milford, MA, United States) was applied for post-acquisition data processing.

## COC(=O)C1=CO[C@@H](O[C@@H]2O[C@H](CO[C@@H]3O[C@H](CO)[C@@H](O)[C@H](O)[C@H]3O)[C@@H](O)[C@H](O)[C@H]2O)[C@@H]2C(CO)=CC[C@H]12 [genipin-1-β-D-gentiobiodide, Genipin-1-β-D-gentiobiodide]
[1]; plasma
  AUC(0-∞): 31749.4 ± 15408.0 µg·min/L
  Ka: 106.8 ± 25.5 min⁻¹
  Cmax: 63.9 ± 10.1 ng/mL
  Tmax: 0.25 h
  CL/F: 1260 ± 165 mL/min/kg
  MRT inf: 3.14 h
[1]; Sprague Dawley, plasma
  Vd/F: 280 ± 254 L/kg
  half-life: 2.81 ± 3.01 h
[1]
  AUC(0-∞) reduced by, cholestatic model rats compared with normal rats: 17.7%
  Cmax reduced by, cholestatic model rats compared with normal rats: 39.5%
[2]
  Source (biological samples in which the compound was identified): Bile, urine

## COC(=O)C1=COC(OC2OC(CO)C(O)C(O)C2O)C2C(CO)=CC(O)C12 (stereo not drawn) [Scandoside methyl ester]
[1]; plasma
  AUC(0-∞): 300942.4 ± 177466.0 µg·min/L
  Ka: 22.6 ± 38.8 min⁻¹
[1]; Sprague Dawley, in vivo
  Cmax: 93.8 ± 13.7 ng/mL
  Tmax: 4.4 h
  CL/F: 98 ± 16 mL/min/kg
  MRT inf: 16.7 h
[1]; in vivo
  Vd/F: 95.6 ± 26.6 L/kg
  half-life: 11.5 ± 3.28 h
[1]
  Cmax reduced by, cholestatic model rats compared with normal rats: 26.3%
  in vivo absorption and excretion processes in cholestatic rats (comparison of Ka and Ke): inhibited
[2]
  Source (biological samples in which the compound was identified): Plasma, bile, urine, feces

## O=C(O)C1=CO[C@@H](O[C@@H]2O[C@H](CO)[C@@H](O)[C@H](O)[C@H]2O)[C@@H]2C(CO)=CC[C@H]12 [Geniposidic acid]
[1]; plasma
  AUC(0-∞): 3007701.6 ± 1408367.9 µg·min/L
  Ka: 41280.6 ± 37036.2 min⁻¹
  Cmax: 1690 ± 251 ng/mL
  Tmax: 4 h
  MRT inf: 9.5 h
[1]; Sprague Dawley, plasma
  Vd/F: 4990 ± 1180 L/kg
  half-life: 5.23 ± 1.44 h
[1]
  AUC(0-∞) increased by, cholestatic model rats compared with normal rats: 85.5%
  Cmax increased by, cholestatic model rats compared with normal rats: 153.7%
  in vivo absorption and excretion processes in cholestatic rats (comparison of Ka and Ke): significantly enhanced
[2]
  Source (biological samples in which the compound was identified): Plasma, urine, feces

## O=C(O)c1cc(O)c2c(c1)C(=O)c1cccc(O)c1C2=O [Rhein]
[1]; plasma
  AUC(0-∞): 172453.1 ± 108249.8 µg·min/L
  Ka: 478.1 ± 200.1 min⁻¹
  Cmax: 422 ± 87.5 ng/mL
  Tmax: 0.25 h
  CL/F: 221 ± 84 mL/min/kg
  MRT inf: 2.83 h
  Vd/F: 41.4 ± 20.8 L/kg
  half-life: 2.19 ± 0.812 h
[1]
  AUC(0-∞) reduced by, cholestatic model rats compared with normal rats: 80.9%
  Cmax reduced by, cholestatic model rats compared with normal rats: 86.1%
  in vivo absorption and excretion processes in cholestatic rats (comparison of Ka and Ke): inhibited
[2]
  Source (biological samples in which the compound was identified): Plasma, bile, urine, feces

## CC(=O)c1ccc(O)cc1 [4-hydroxyacetophenone, 4-Hydroxyacetophenone]
[1]; plasma
  AUC(0-∞): 113028.5 ± 56412.0 µg·min/L
  Ka: 202.7 ± 235.9 min⁻¹
  Cmax: 676 ± 85 ng/mL
  Tmax: 0.25 h
  CL/F: 215 ± 37 mL/min/kg
  MRT inf: 18.6 h
  Vd/F: 429 ± 287 L/kg
  half-life: 25.9 ± 21 h
[1]
  AUC(0-∞) reduced by, cholestatic model rats compared with normal rats: 41.2%
  Cmax reduced by, cholestatic model rats compared with normal rats: 57.2%
  in vivo absorption and excretion processes in cholestatic rats (comparison of Ka and Ke): inhibited
[2]
  Source (biological samples in which the compound was identified): Plasma, bile, urine, feces

## COC(=O)C1=CO[C@@H](O[C@@H]2O[C@H](CO)[C@@H](O)[C@H](O)[C@H]2O)[C@@H]2C(CO)=CC[C@H]12 [Geniposide]
[1]; plasma
  AUC(0-∞): 956445.5 ± 420665.9 µg·min/L
  Ka: 1543.0 ± 592.8 min⁻¹
[1]; in vivo
  Cmax: 578 ± 59.6 ng/mL
  Tmax: 0.45 h
  CL/F: 45 ± 12 mL/min/kg
  MRT inf: 7.5 h
  Vd/F: 22.4 ± 7.5 L/kg
  half-life: 5.64 ± 0.467 h
[1]
  AUC(0-∞) increased by, cholestatic model rats compared with normal rats: 148.9%
  Cmax increased by, cholestatic model rats compared with normal rats: 10.2%
  in vivo absorption and excretion processes in cholestatic rats (comparison of Ka and Ke): significantly enhanced
[2]
  Source (biological samples in which the compound was identified): Plasma, bile, urine, feces
